The values below come from ChEMBL document CHEMBL1201862, “PubChem BioAssay data set” (2004).

Structures are written as SMILES.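 Following 48 hours of exposure in 96-well plates, responses at five concentrations were used to interpolate endpoints linearly. The concentration for 50% growth inhibition is given as GI50.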 Active and inactive are the calls of the source. Rule as the data show it: active = GI50 up to about 1.1 µM and inactive = higher.

Some test systems named below: T47D; ACHN; DU-145; BT-549; Hs-578T; PC-3; MDA-MB-435; SF-539; U-251; NCI-H460; OVCAR-3; A549; M19-MEL; HCT-116; DMS-114; SW-620; RPMI-8226; SR; MDA-N; MDA-MB-231.
What all share (test): DTP human tumour cell line panel, 48 h

With `O=C(CSCC(=O)N/N=C/c1cccc(C(F)(F)F)c1)N/N=C/c1cccc(C(F)(F)F)c1`, the GI50 in the assay with T47D, with ACHN, in the assay with DU-145, in the assay with BT-549, in the assay with Hs-578T and with PC-3 was > 100 µM (inactive) each time. The GI50 in the assay on MDA-MB-435 and in the assay on SF-539 was > 100 µM (inactive) each time.
As to `O=S(=O)(O)c1cc(S(=O)(=O)O)c2cc(/N=N/c3ccc(/N=N/c4ccc(/C=C/c5ccc(/N=[N+](/[O-])c6ccc(/C=C/c7ccc(/N=N/c8ccc(/N=N/c9ccc%10cc(S(=O)(=O)O)cc(S(=O)(=O)O)c%10c9)cc8)cc7S(=O)(=O)O)c(S(=O)(=O)O)c6)cc5S(=O)(=O)O)c(S(=O)(=O)O)c4)cc3)ccc2c1`, the GI50 in the assay on U-251 was > 55.8 µM (inactive); in the assay on NCI-H460, > 40.3 µM (inactive); with OVCAR-3 it was > 31.6 µM (inactive); in the assay with A549, > 65.3 µM (inactive); in the assay with M19-MEL, > 25 µM (inactive); with HCT-116, > 28.6 µM (inactive). Besides, the GI50 was > 57.4 µM (inactive) in the assay with DMS-114, > 10 µM (inactive) in the assay with SW-620, 46.5 µM (inactive) with RPMI-8226 and > 59 µM (inactive) with SF-539.
`O=C(NC(Cc1ccc(Br)cc1)C(=O)O)c1ccc(I)cc1` (stereo unspecified): the GI50 in the assay on U-251 was > 95.3 µM (inactive); in the assay with NCI-H460, > 100 µM (inactive); in the assay with OVCAR-3, > 69.7 µM (inactive); with A549 it was > 100 µM (inactive); with M19-MEL, > 100 µM (inactive); in the assay with HCT-116 it was > 100 µM (inactive). In addition, the GI50 in the assay on DMS-114 was 70.5 µM (inactive); in the assay on SW-620, > 100 µM (inactive); in the assay on RPMI-8226, > 68.9 µM (inactive); with SF-539, > 100 µM (inactive).
`COc1cc(C2S/C(=C/c3ccccc3)C(=O)N2c2ccc(NC(C)=O)cc2)cc(OC)c1OC` (stereo unspecified): the GI50 in the assay with U-251 was 15.6 µM (inactive); with T47D, 11.6 µM (inactive); in the assay with ACHN, 22.7 µM (inactive); in the assay on SR it was 18.9 µM (inactive); in the assay on MDA-N, 19.3 µM (inactive); in the assay with MDA-MB-231, 14.2 µM (inactive). The GI50 in the assay with A549 was 23.8 µM (inactive); in the assay on BT-549, 16.3 µM (inactive); with HCT-116, 12.7 µM (inactive); in the assay on Hs-578T it was 21.2 µM (inactive); with PC-3 it was 11.8 µM (inactive); in the assay on MDA-MB-435, 18.2 µM (inactive).
`COc1ccc2cc1Oc1ccc(cc1)CC1c3c(cc(OC)c4c3Oc3cc5c(cc3O4)CCNC5C2)CCN1C` (stereo unspecified): the GI50 in the assay on ACHN is 1.88 µM (inactive); in the assay with SR it was 0.698 µM (active); in the assay on MDA-N it was 1.83 µM (inactive); in the assay with OVCAR-3, 2.69 µM (inactive); in the assay with A549, 2.2 µM (inactive); in the assay with BT-549, 2.77 µM (inactive). Moreover, the GI50 was 2.19 µM (inactive) in the assay on Hs-578T; 1.77 µM (inactive) in the assay with SW-620; 1.88 µM (inactive) in the assay with PC-3; 1.8 µM (inactive) with MDA-MB-435; 1.63 µM (inactive) in the assay with RPMI-8226; 1.7 µM (inactive) with SF-539.
Regarding `Nc1nc2c(c(-c3ccc(F)cc3)n1)COC/C2=C\c1ccc(F)cc1`, the GI50 in the assay on U-251 was 15.4 µM (inactive); in the assay with NCI-H460, 15.5 µM (inactive); with ACHN it was 55.6 µM (inactive); with SR, 17 µM (inactive); with MDA-N it was > 100 µM (inactive); in the assay with MDA-MB-231, > 100 µM (inactive). Also, the GI50 with OVCAR-3 was 51.4 µM (inactive); with DU-145, > 100 µM (inactive); in the assay on BT-549 it was 43.5 µM (inactive); with Hs-578T, 33.4 µM (inactive); in the assay on SW-620, > 100 µM (inactive); with PC-3, 43.3 µM (inactive). The GI50 was 41.2 µM (inactive) in the assay with MDA-MB-435, 71.6 µM (inactive) with RPMI-8226 and > 100 µM (inactive) with SF-539.
Take `CC1(O)C2(c3ccccc3)CCC[N+]1(C)CC2` (stereo unspecified): the GI50 in the assay with U-251, in the assay on NCI-H460, in the assay with T47D, in the assay with MDA-N, in the assay with MDA-MB-231 and in the assay with OVCAR-3 was > 100 µM (inactive) throughout. Also, the GI50 with DU-145, with BT-549, in the assay with HCT-116, in the assay with Hs-578T, in the assay with SW-620 and in the assay with PC-3 was > 100 µM (inactive) each time. Also, the GI50 in the assay with MDA-MB-435 and in the assay on RPMI-8226 was > 100 µM (inactive) each time.

One may read the GI50 as the concentration that inhibits growth by half.
